The source made the active and inactive calls. The rule behind the calls is not given here. Where only a bound is given, the exact number is not on record here.

The results in this text go back to ChEMBL document CHEMBL1129000, “Inhibitors of acyl-CoA: cholesterol O-acyl transferase (ACAT) as hypocholesterolemic agents. The synthesis and biological activity of a series of malonester amides” (Bioorg Med Chem Lett, 1996).

The target of experiment [1] is O-acyltransferase (Oryctolagus cuniculus, UniProt G1SFD9). As to the kind of experiment: In vitro inhibitory activity against Acyl coenzyme A:cholesterol acyltransferase in intestinal microsomes isolated from cholesterol fed rabbits (IAI). Details: species or system Intestine.
Experiment [2] deals with Rattus norvegicus. Put plainly: In vivo percent change in the total cholesterol after consumption of a single high fat, high cholesterol meal by rats. The format is functional.
Experiment [3] concerns Rattus norvegicus. Put plainly: Tested for the percentage change in non HDL-C in pre-established hypercholesterolemia (CPCC) model fat at a dose of 1 mg/kg. The format is functional.
In experiment [4] the test system is Rattus norvegicus. Put plainly: Tested for the percentage change in HDL in pre-established hypercholesterolemia (CPCC) model at a dose of 0.1 mg/kg. The format is functional.
Experiment [5] concerns Rattus norvegicus. As to the kind of experiment: Tested for the percentage change in HDL in pre-established hypercholesterolemia (CPCC) model at a dose of 1 mg/kg. Format: functional.
The subject of experiment [6] is Rattus norvegicus. Put plainly: Tested for the percentage change in HDL in pre-established hypercholesterolemia (CPCC) model at a dose of 3 mg/kg. The format is functional.
Experiment [7] relates to Rattus norvegicus. Put plainly: Tested for the percentage change in non HDL-C in pre-established hypercholesterolemia (CPCC) model at a dose of 0.1 mg/kg. Format: functional.
The test system of experiment [8] is Rattus norvegicus. As to the kind of experiment: Tested for the percentage change in non HDL-C in pre-established hypercholesterolemia (CPCC) model at dose of 3 mg/kg. Format: functional.
Experiment [9] has as its system Rattus norvegicus. As to the kind of experiment: Tested for the percentage change in HDL in pre-established hypercholesterolemia (CPCC) model fat at a dose of 30 mg/kg. The format is functional.
Experiment [10] has as its system Rattus norvegicus. Put plainly: Tested for the percentage change in non HDL-C in pre-established hypercholesterolemia (CPCC) model at a dose of 30 mg/kg. Format: functional.
For experiment [11], the system named is Rattus norvegicus. As to the kind of experiment: Tested for the percentage change in non HDL-C in pre-established hypercholesterolemia (CPCC) model fat at a dose of 3 mg/kg (p<0.05). Format: functional.
The test system of experiment [12] is Rattus norvegicus. Put plainly: Tested for the percentage change in HDL in pre-established hypercholesterolemia (CPCC) model at a dose of 1 mg/kg (p<0.05). Format: functional.
In experiment [13] the test system is Rattus norvegicus. As to the kind of experiment: Tested for the percentage change in HDL in pre-established hypercholesterolemia (CPCC) model at a dose of 10 mg/kg (p<0.05). Format: functional.
The subject of experiment [14] is Rattus norvegicus. As to the kind of experiment: Tested for the percentage change in HDL in pre-established hypercholesterolemia (CPCC) model at a dose of 3 mg/kg (p<0.05). The format is functional.
The subject of experiment [15] is Rattus norvegicus. Put plainly: Tested for the percentage change in non HDL-C in pre-established hypercholesterolemia (CPCC) model at a dose of 1 mg/kg (p<0.05). Format: functional.
Experiment [16] concerns Rattus norvegicus. As to the kind of experiment: Tested for the percentage change in non HDL-C in pre-established hypercholesterolemia (CPCC) model at dose of 10 mg/kg (p<0.05). The format is functional.
In experiment [17] the test system is Rattus norvegicus. Put plainly: Tested for the percentage change in non HDL-C in pre-established hypercholesterolemia (CPCC) model fat at a dose of 3 mg/kg. Format: functional.
The test system of experiment [18] is Rattus norvegicus. As to the kind of experiment: Tested for the percentage change in HDL in pre-established hypercholesterolemia (CPCC) model at a dose of 1 mg/kg; No change. Details: dose 1 mg/kg. Format: functional, organism-based.
Experiment [19] deals with Rattus norvegicus. Put plainly: Tested for the percentage change in HDL in pre-established hypercholesterolemia (CPCC) model at a dose of 10 mg/kg. The format is functional.
The test system of experiment [20] is Rattus norvegicus. Put plainly: Tested for the percentage change in HDL in pre-established hypercholesterolemia (CPCC) model at a dose of 3 mg/kg. Format: functional.
Experiment [21] has as its system Rattus norvegicus. Put plainly: Tested for the percentage change in non HDL-C in pre-established hypercholesterolemia (CPCC) model at a dose of 1 mg/kg. Format: functional.
Experiment [22] has as its system Rattus norvegicus. Put plainly: Tested for the percentage change in non HDL-C in pre-established hypercholesterolemia (CPCC) model at dose of 10 mg/kg. The format is functional.
Experiment [23] has as its system Rattus norvegicus. Put plainly: Tested for the percentage change in non HDL in pre-established hypercholesterolemia (CPCC) model fat at a dose of 30 mg/kg; Non significant. The format is functional, organism-based. Details: dose 30 mg/kg.
The test system of experiment [24] is Rattus norvegicus. As to the kind of experiment: Tested for the percentage change in non HDL in pre-established hypercholesterolemia (CPCC) model fat at a dose of 30 mg/kg. The format is functional.

Chain of O-acyltransferase (G1SFD9 1-524): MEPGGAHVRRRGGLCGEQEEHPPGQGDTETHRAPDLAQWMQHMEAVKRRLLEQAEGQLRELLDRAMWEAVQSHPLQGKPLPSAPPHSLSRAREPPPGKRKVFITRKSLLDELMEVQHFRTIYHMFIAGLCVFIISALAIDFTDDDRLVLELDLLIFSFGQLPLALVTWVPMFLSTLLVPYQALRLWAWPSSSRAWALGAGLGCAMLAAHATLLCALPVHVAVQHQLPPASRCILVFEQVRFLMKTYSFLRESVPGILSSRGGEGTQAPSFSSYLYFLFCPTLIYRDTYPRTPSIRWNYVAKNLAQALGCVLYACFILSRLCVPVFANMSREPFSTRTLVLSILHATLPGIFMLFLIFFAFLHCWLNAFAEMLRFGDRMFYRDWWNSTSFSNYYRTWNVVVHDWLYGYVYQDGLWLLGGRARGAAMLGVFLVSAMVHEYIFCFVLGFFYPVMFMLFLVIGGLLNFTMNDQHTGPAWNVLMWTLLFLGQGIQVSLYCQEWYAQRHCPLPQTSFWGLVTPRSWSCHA

Broadly, the IC50 is the concentration needed to halve the response being measured. Read a low IC50 as higher potency. As for `CCCCCCCCCCCC[C@@H](C)OC(=O)CC(=O)Nc1c(C(C)C)cccc1C(C)C`, the half-inhibitory concentration (IC50) in [1] turned out to be 4 nM. The Change in experiment [2] is reported as -67%.
In the same order, the values of `CCCCCCCCCCCC[C@H](C)OC(=O)CC(=O)Nc1c(C(C)C)cccc1C(C)C` are 4 nM and -66%.
Taken in the same sequence, the figures for `COc1cc(OC)c(OC(=O)CC(=O)Nc2c(C(C)C)cccc2C(C)C)c(OC)c1` were 320 nM and -9%.
In the same order, the values of `CCCCCCCCCCCCCCCCOC(=O)CC(=O)Nc1c(C(C)C)cccc1C(C)C` are 35 nM and -56%.
`CCCCCCCCCCCCCCC(C)OC(=O)CC(=O)Nc1c(C(C)C)cccc1C(C)C` (stereo not given): the IC50 in [1] worked out at 11 nM. Also, the Change in experiment [3] is reported as 7%; in experiment [4] it was -12%; in experiment [5], 13%; in experiment [6], -24%; in [7], -8%; in experiment [8] it was -2%. For the same compound, the Change in experiment [2] was -60%.
With `CC(C)c1cccc(C(C)C)c1NC(=O)CC(=O)OC(c1ccccn1)c1ccccn1`, the IC50 in [1] is above 5000 nM. For the same compound, the Change in experiment [2] was -55%.
With `CCCCCCCCCCOC(=O)CC(=O)Nc1c(C(C)C)cccc1C(C)C`, the IC50 in [1] is 53 nM. Moreover, the Change in experiment [2] is -37%.
Compound `CC(C)c1cccc(C(C)C)c1NC(=O)CC(=O)O` registered a half-inhibitory concentration (IC50) in experiment [1] above 5000 nM.
`CC(C)c1cccc(C(C)C)c1OC(=O)CC(=O)Nc1c(F)cc(F)cc1F` displayed an IC50 in [1] above 5000 nM. The Change in [2] is recorded as -9%.
As to `CCCCCCCCCCCCOC(=O)CC(=O)Nc1c(C(C)C)cccc1C(C)C`, the IC50 in experiment [1] was 11 nM. In addition, the Change in [9] is given as -21%; in experiment [10], -8%; in experiment [2] it was -52%.
In the case of `CCCCCCCCOC(=O)CC(=O)Nc1c(C(C)C)cccc1C(C)C`, in [1], the concentration for half-maximal inhibition (IC50) amounted to 260 nM. The Change in [2] is given as -43%.
The compound `CCCCCCCCC(C)OC(=O)CC(=O)Nc1c(C(C)C)cccc1C(C)C` (stereo not given) gave a half-maximal inhibitory concentration (IC50) in experiment [1] of 12 nM. Further, the Change in experiment [2] is -61%.
Taken in the same sequence, the figures for `CCCCC(C)(C)OC(=O)CC(=O)Nc1c(C(C)C)cccc1C(C)C` were 15 nM and -52%.
Consider `Cc1cccc(C)c1NC(=O)CC(=O)Oc1c(C(C)C)cccc1C(C)C`, for which, in experiment [1], the IC50 came to 210 nM. Also, the Change in experiment [2] is on record as 5%.
In the same order, the values of `CCCCCCOC(=O)CC(=O)Nc1c(C(C)C)cccc1C(C)C` are 810 nM and -29%.
Regarding `CCCCCCCCCCCCC(C)OC(=O)CC(=O)Nc1c(C(C)C)cccc1C(C)C` (stereo not given), the Change in experiment [11] was -73%; in experiment [12], 64%; in experiment [13] it was 114%; in [14], 157%; in [15], -54%; in experiment [16] it was -83%. Further, in [2], the Change was -54%.
As to `CCCCCCCCCCC(C)OC(=O)CC(=O)Nc1c(C(C)C)cccc1C(C)C` (stereo not given), the IC50 in experiment [1] was found to be 6 nM. Moreover, the Change is listed as -40% in [17]; 29% in [19]; 36% in experiment [20]; -15% in [21]; -51% in [22]; -70% in experiment [2]. For the same compound, the Change result in experiment [18] is “inactive”.
Compound `CC(C)c1cccc(C(C)C)c1NC(=O)CC(=O)Oc1c(C(C)C)cccc1C(C)C` yielded an IC50 in [1] of 42 nM. The Change entry in [23] was “Not significant”; in experiment [10] it was 9%; in [2], below -50%.
`CC(C)c1cccc(C(C)C)c1NC(=O)CC(=O)OC(c1ccccc1)c1ccccc1` gave an IC50 in experiment [1] of 38 nM. Further, the Change in experiment [2] is on record as -41%.
In [1], `CC(C)c1cccc(C(C)C)c1OC(=O)CC(=O)Nc1ccccc1` had a half-maximal inhibitory concentration (IC50) above 5000 nM.
Regarding `CCCCCCCCCCCCC(C)(C)OC(=O)CC(=O)Nc1c(C(C)C)cccc1C(C)C`, in experiment [1], the half-inhibitory concentration (IC50) was found to be 12 nM. The Change in experiment [3] was -19%; in experiment [4], -12%; in [5], 6%; in [6], -13%; in experiment [7] it was -11%; in experiment [8], -19%. Besides, in [2], the Change is reported as -72%.
Take `CC(C)c1cccc(C(C)C)c1NC(=O)CC(=O)OC(c1ccccc1)c1ccccn1` (stereo not given): the IC50 in experiment [1] was above 5000 nM.
`CCCCCC(C)OC(=O)CC(=O)Nc1c(C(C)C)cccc1C(C)C` (stereo not given) showed an IC50 in experiment [1] of 27 nM. The Change in experiment [2] is -46%.
In the case of `CCCCCCCCCCCCCCOC(=O)CC(=O)Nc1c(C(C)C)cccc1C(C)C`, in experiment [1], it took 15 nM to reach half-maximal inhibition (IC50). Further, the Change in experiment [24] is on record as 6%; in experiment [10] it was -11%; in experiment [2], -61%.
In the case of `CC(C)c1cccc(C(C)C)c1NC(=O)CC(=O)Oc1c(-c2ccccc2)cccc1-c1ccccc1`, the 50% inhibitory concentration (IC50) in [1] was 67 nM. For the same compound, in experiment [2], the Change is -41%.
Taken in the same sequence, the figures for `CCCCCCCCCCCCCCCCCCOC(=O)CC(=O)Nc1c(C(C)C)cccc1C(C)C` were 53 nM and -16%.
In the same order, the values of `COc1cccc(OC)c1OC(=O)CC(=O)Nc1c(C(C)C)cccc1C(C)C` are 1700 nM and 5%.
As for `CCOC(=O)CC(=O)Nc1c(C(C)C)cccc1C(C)C`, the IC50 in experiment [1] worked out at 1800 nM. That is a single-digit micromolar value.
With `COc1cc(OC)c(NC(=O)CC(=O)Oc2c(C(C)C)cccc2C(C)C)c(OC)c1`, in [1], half-maximal inhibition (IC50) was put at 1000 nM. Moreover, in experiment [2], the Change is given as -29%.
In [1], `CC(C)c1cccc(C(C)C)c1OC(=O)CC(=O)Nc1c(F)cccc1F` yielded a half-inhibitory concentration (IC50) of 6200 nM. For the same compound, the Change in [2] came out at 4%.
Taken in the same sequence, the figures for `CC(C)c1cccc(C(C)C)c1NC(=O)CC(=O)OC(C)(C)C` were 130 nM and -24%.
In the case of `CC(C)c1cccc(C(C)C)c1OC(=O)CC(=O)Nc1ccc(F)cc1F`, in experiment [1], the half-inhibitory concentration (IC50) is 6400 nM. In other words, the single-digit micromolar range.
`CC(C)c1cccc(C(C)C)c1OC(=O)CC(=O)Nc1c(N(C)C)cccc1N(C)C` yielded an IC50 in experiment [1] of 71 nM. Moreover, the Change in experiment [2] is -29%.
